# Source: patent US11618767B2, “Carboxy substituted glucocorticoid receptor agonists” (Eli Lilly and Company, priority 2021, dated 2023)
# Target: T1, GR-LBD (Homo sapiens, UniProt P04150)
# T1 construct: purchased Life Technologies A15899
# T1 sequence (P04150 524-758 limits assumed): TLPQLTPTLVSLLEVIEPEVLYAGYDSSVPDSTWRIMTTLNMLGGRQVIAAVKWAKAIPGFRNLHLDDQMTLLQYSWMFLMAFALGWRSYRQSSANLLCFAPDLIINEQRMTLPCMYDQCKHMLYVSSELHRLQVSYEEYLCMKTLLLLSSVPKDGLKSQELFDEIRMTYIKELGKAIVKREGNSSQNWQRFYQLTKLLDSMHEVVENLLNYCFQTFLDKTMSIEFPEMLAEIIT
# Experiment: hGR CoActivator Recruitment Assay (LanthaScreen TR-Fret GR Coactivator Assay)
# Type: biochemical
# Settings: TR-FRET emission ratio 520/490; 10-point serial dilution, top concentration 200 nM; Fluorescein-SRC1-4 coactivator peptide; read-out: relative IC50
# Method: hGR CoActivator Recruitment Assay The activity of glucocorticoid compounds was measured using the LanthaScreen TR-Fret GR Coactivator Assay from Life Technologies (A15899). The compounds were acoustically transferred to an assay plate in a 3-fold 10-point serial dilution with a top concentration of 200 nM. Ten microliters of a 2× solution of GR-LBD was added to the compound plate and incubated for 10 min. Then ten microliters of a 2× solution of Fluoresein-SRC1-4 and Tb labelled anti-GST antibody was added to the plate. The plate was incubated in the dark for two hours and then read on an Envision plate reader, with excitation at 340 nm and emission at 520 nm (Fluorescein) and 490 nm (Terbium). The emission ratio of 520/490 was analyzed in Genedata. To obtain percent activity, the data was compared to a negative control of DMSO and positive control of […] dexamethasone.
row,IC50 [nM],SMILES
1,< 200,"Cc1ccc(OCc2cccc(C(=O)O)c2)c(F)c1[C@@H]1O[C@@H]2C[C@H]3[C@@H]4CCC5=CC(=O)C=C[C@]5(C)[C@H]4[C@@H](O)C[C@]3(C)[C@]2(C(=O)CO)O1 [Example 3, 3-((2-Fluoro-3-((6aR,6bS,7S,8aS,8bS,10R,11aR,12aS,12bS)-7-hydroxy-8b-(2-hydroxyacetyl)-6a, 8a-dimethyl-4-oxo-2,4,6a,6b,7,8,8a,8b,11a,12,12a,12b-dodecahydro-1H-naphtho[2′,1′:4,5]indeno[1,2-d][1,3]dioxol-10-yl)-4-methylphenoxy)methyl)benzoic Acid]"
2,> 200,COc1ccc(OCc2ccccc2C(=O)O)c(F)c1[C@@H]1O[C@@H]2C[C@H]3[C@@H]4CCC5=CC(=O)C=C[C@]5(C)[C@H]4[C@@H](O)C[C@]3(C)[C@]2(C(=O)CO)O1 [Example 13]
3,< 200,COc1ccc(OCc2cccc(C(=O)O)c2)c(F)c1[C@@H]1O[C@@H]2C[C@H]3[C@@H]4CCC5=CC(=O)C=C[C@]5(C)[C@H]4[C@@H](O)C[C@]3(C)[C@]2(C(=O)CO)O1 [Example 11]
4,4.5,"C[C@]12C=CC(=O)C=C1CC[C@@H]1[C@@H]2[C@@H](O)C[C@@]2(C)[C@H]1C[C@H]1O[C@H](c3ccc(Cc4ccc(C(=O)O)cc4)cc3F)O[C@]12C(=O)CO (single isomer, unassigned) [Example 2]"
5,< 200,C[C@]12C=CC(=O)C=C1CC[C@@H]1[C@@H]2[C@@H](O)C[C@@]2(C)[C@H]1C[C@H]1O[C@H](c3ccc(Oc4cccc(C(=O)O)c4)cc3)O[C@]12C(=O)CO [Example 8]
6,2.14,"C[C@]12C=CC(=O)C=C1CC[C@@H]1[C@@H]2[C@@H](O)C[C@@]2(C)[C@H]1C[C@H]1O[C@@H](c3ccc(Cc4ccc(C(=O)O)cc4)cc3F)O[C@]12C(=O)CO (single isomer, unassigned) [Example 1]"

# More lines, now with the values behind:
row,SMILES,IC50 [nM]
1,C[C@]12C=CC(=O)C=C1CC[C@@H]1[C@@H]2[C@@H](O)C[C@@]2(C)[C@H]1C[C@H]1O[C@H](c3ccc(Oc4ccc(C(=O)O)cc4)cc3)O[C@]12C(=O)CO [Example 6],< 200
2,Cc1ccc(OCc2ccccc2C(=O)O)c(F)c1[C@H]1O[C@@H]2C[C@H]3[C@@H]4CCC5=CC(=O)C=C[C@]5(C)[C@H]4[C@@H](O)C[C@]3(C)[C@]2(C(=O)CO)O1 [Example 15],< 200
3,C[C@]12C=CC(=O)C=C1CC[C@@H]1[C@@H]2[C@@H](O)C[C@@]2(C)[C@H]1C[C@H]1O[C@@H](c3ccc(Oc4cccc(C(=O)O)c4)cc3)O[C@]12C(=O)CO [Example 7],< 200
4,COc1ccc(OCc2cccc(C(=O)O)c2)c(F)c1[C@H]1O[C@@H]2C[C@H]3[C@@H]4CCC5=CC(=O)C=C[C@]5(C)[C@H]4[C@@H](O)C[C@]3(C)[C@]2(C(=O)CO)O1 [Example 12],< 200
5,C[C@]12C=CC(=O)C=C1CC[C@@H]1[C@@H]2[C@@H](O)C[C@@]2(C)[C@H]1C[C@H]1O[C@@H](c3ccc(Cc4cccc(C(=O)O)c4)cc3F)O[C@]12C(=O)CO [Example 9],< 200
6,COc1ccc(OCc2ccccc2C(=O)O)c(F)c1[C@H]1O[C@@H]2C[C@H]3[C@@H]4CCC5=CC(=O)C=C[C@]5(C)[C@H]4[C@@H](O)C[C@]3(C)[C@]2(C(=O)CO)O1 [Example 14],< 200
7,C[C@]12C=CC(=O)C=C1CC[C@@H]1[C@@H]2[C@@H](O)C[C@@]2(C)[C@H]1C[C@H]1O[C@@H](c3ccc(Oc4ccc(C(=O)O)cc4)cc3)O[C@]12C(=O)CO [Example 5],< 200
8,"Cc1ccc(OCc2cccc(C(=O)O)c2)c(F)c1[C@H]1O[C@@H]2C[C@H]3[C@@H]4CCC5=CC(=O)C=C[C@]5(C)[C@H]4[C@@H](O)C[C@]3(C)[C@]2(C(=O)CO)O1 [Example 4, 3-((2-Fluoro-3-((6aR,6bS,7S,8aS,8bS,10 S,11aR,12a5,12bS)-7-hydroxy-8b-(2-hydroxyacetyl)-6a, 8a-dimethyl-4-oxo-2,4,6a,6b,7,8,8a, 8b,11a,12,12a,12b-dodecahydro-1H-naphtho[2′,1′:4,5]indeno[1,2-d][1,3]dioxol-10-yl)-4-methylphenoxy)methyl)benzoic Acid]",< 200
9,C[C@]12C=CC(=O)C=C1CC[C@@H]1[C@@H]2[C@@H](O)C[C@@]2(C)[C@H]1C[C@H]1O[C@H](c3ccc(Cc4cccc(C(=O)O)c4)cc3F)O[C@]12C(=O)CO [Example 10],> 200
